From patent US4062816A, “D-Ala^5 -somatostatin and intermediates thereto” (Eli Lilly and Company, priority 1976, dated 1977)

What was measured:
[1] = system: growth hormone; test: inhibition of the release of growth hormone in pentobarbital-stimulated rats; assay type: in vivo, Spraque-Dawley rats; conditions: 50 μg./rat, subcutaneously; sodium pentobarbital-stimulated; relative to saline control group
Protocol: The product from Example 4 was tested for its activity in inhibiting the release of growth hormone. The procedure which was employed is carried out using mature male Spraque-Dawley rats (Laboratory Supply Company, Indianapolis, Ind.). The test is a modification of the method of P. Brazeau, W. Vale, and R. Guillemen, Endocrinology, 94 184 (1974). In this assay, three groups of eight rats each were employed. First, sodium pentobarbital was administered to all […] rats to stimulate growth hormone secretion. One of the groups of eight rats is the control group and received only saline. A second of the groups received somatostatin at 50 μg./rat, subcutaneously. The third group received D-Ala^5 -somatostatin at 50 μg./rat, subcutaneously. The degree of inhibition of serum growth hormone concentration then was determined with respect to the control group, and the relative activities of D-Ala^5 -somatostatin and somatostatin itself were compared. At a dose level of 50 μg./rat, D-Ala^5 -somatostatin inhibited the increase in serum growth hormone concentration by 40-50 percent, while somatostatin itself produced a 90 percent inhibition.

[2] = system: glucagon; test: inhibition of glucagon secretion in dogs during L-alanine infusion; assay type: in vivo, mongrel dogs; conditions: intravenous infusion 0.20-0.30 μg/kg/minute (D-Ala5-somatostatin 0.230 μg/kg/min.); fasted dogs
Protocol: (§1) The product from Example 4 also was tested for its activity in inhibiting glucagon and insulin secretion. Normal mongrel dogs of either sex were fasted overnight. Control blood samples were obtained, and then an intravenous infusion of saline, somatostatin, or D-Ala^5 -somatostatinwas started. After 30 minutes, L-alanine additionally was administered intravenously for a period of 15 minutes. The infusion of saline, somatostatin, of D-Ala^5 -somatostatin was continued for 15 minutes after completion of the alanine infusion. The total dose of somatostatin or D-Ala^5 -somatostatin which was infused is 200-500 μg/dog (0.20-0.30 μg/kg/ minute), and the total dose of L-alanine infused was 1 mmol.kg./15 minutes.

[3] = system: insulin; test: inhibition of insulin secretion in dogs during L-alanine infusion; assay type: in vivo, mongrel dogs; conditions: intravenous infusion 0.20-0.30 μg/kg/minute (D-Ala5-somatostatin 0.230 μg/kg/min.); fasted dogs
Protocol: as §1

## C[C@H](N)C(=O)NCC(=O)N[C@H]1CSSC[C@@H](C(=O)O)NC(=O)[C@H](CO)NC(=O)[C@H]([C@@H](C)O)NC(=O)[C@H](Cc2ccccc2)NC(=O)[C@H]([C@@H](C)O)NC(=O)[C@H](CCCCN)NC(=O)[C@H](Cc2c[nH]c3ccccc23)NC(=O)[C@H](Cc2ccccc2)NC(=O)[C@H](Cc2ccccc2)NC(=O)[C@@H](C)NC(=O)[C@H](CCCCN)NC1=O [D-Ala^5 -somatostatin]
[1]
  inhibition of the increase in serum growth hormone concentration: 40-50%
[2]
  effect on the increase in serum glucagon concentration produced by L-alanine: did not affect the increase in serum glucagon concentration
[3]
  effect on basal serum insulin concentration (before alanine infusion): caused a brief increase in insulin concentration
  effect on the increase in insulin concentration/secretion produced by L-alanine: did not inhibit the increase in insulin secretion
